According to PubChem BioAssay AID1963436 (Molecular Pharmacology Branch, DTP, NCI, 2024):

System: OVCAR-5 complex spheroid (HUVEC/MSC), viability % T/C
Assay: Anticancer human tumor OVCAR-5 cell line growth inhibition [Asc];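 further: spheroids exposed to agents for 7 days before readout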;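 on viability, T/C: 100% = DMSO vehicle-treated wells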
Details: for IC50: curve of first compound; for viability, T/C: stronger effect = lower value; active means viability on the fitted dose curve at most 10% of control; inactive means the rest
Summary of the method: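 Complex solid-tumor spheroids incorporating human endothelial and mesenchymal stem cells received single agents or combinations over half-log dilution ranges anchored to clinical Cmax.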

[1] = second compound 0.01 µM, first compound 0.0316 µM
[2] = second compound 0.01 µM, first compound 0.1 µM
[3] = second compound 0.01 µM, first compound 0.316 µM
[4] = second compound 0.01 µM, first compound 1 µM
[5] = second compound 0.01 µM, first compound 3.16 µM
[6] = second compound 0.01 µM, first compound 10 µM
[7] = second compound 0.0316 µM, first compound 0.0316 µM
[8] = second compound 0.0316 µM, first compound 0.1 µM
[9] = second compound 0.0316 µM, first compound 0.316 µM
[10] = second compound 0.0316 µM, first compound 1 µM
[11] = second compound 0.0316 µM, first compound 3.16 µM
[12] = second compound 0.0316 µM, first compound 10 µM
[13] = second compound 0.1 µM, first compound 0.0316 µM
[14] = second compound 0.1 µM, first compound 0.1 µM
[15] = second compound 0.1 µM, first compound 0.316 µM
[16] = second compound 0.1 µM, first compound 1 µM
[17] = second compound 0.1 µM, first compound 3.16 µM
[18] = second compound 0.1 µM, first compound 10 µM
[19] = second compound 0.316 µM, first compound 0.0316 µM
[20] = second compound 0.316 µM, first compound 0.1 µM
[21] = second compound 0.316 µM, first compound 0.316 µM
[22] = second compound 0.316 µM, first compound 1 µM
[23] = second compound 0.316 µM, first compound 3.16 µM
[24] = second compound 0.316 µM, first compound 10 µM
[25] = second compound 1 µM, first compound 0.0316 µM
[26] = second compound 1 µM, first compound 0.1 µM
[27] = second compound 1 µM, first compound 0.316 µM
[28] = second compound 1 µM, first compound 1 µM
[29] = second compound 1 µM, first compound 3.16 µM
[30] = second compound 1 µM, first compound 10 µM
[31] = second compound 0.01 µM, first compound 0.00949 µM
[32] = second compound 0.01 µM, first compound 0.03 µM
[33] = second compound 0.01 µM, first compound 0.0949 µM
[34] = second compound 0.01 µM, first compound 0.3 µM
[35] = second compound 0.01 µM, first compound 0.949 µM
[36] = second compound 0.01 µM, first compound 3 µM
[37] = second compound 0.0316 µM, first compound 0.00949 µM
[38] = second compound 0.0316 µM, first compound 0.03 µM
[39] = second compound 0.0316 µM, first compound 0.0949 µM
[40] = second compound 0.0316 µM, first compound 0.3 µM
[41] = second compound 0.0316 µM, first compound 0.949 µM
[42] = second compound 0.0316 µM, first compound 3 µM
[43] = second compound 0.1 µM, first compound 0.00949 µM
[44] = second compound 0.1 µM, first compound 0.03 µM
[45] = second compound 0.1 µM, first compound 0.0949 µM
[46] = second compound 0.1 µM, first compound 0.3 µM
[47] = second compound 0.1 µM, first compound 0.949 µM
[48] = second compound 0.1 µM, first compound 3 µM
[49] = second compound 0.316 µM, first compound 0.00949 µM
[50] = second compound 0.316 µM, first compound 0.03 µM
[51] = second compound 0.316 µM, first compound 0.0949 µM
[52] = second compound 0.316 µM, first compound 0.3 µM
[53] = second compound 0.316 µM, first compound 0.949 µM
[54] = second compound 0.316 µM, first compound 3 µM
[55] = second compound 1 µM, first compound 0.00949 µM
[56] = second compound 1 µM, first compound 0.03 µM
[57] = second compound 1 µM, first compound 0.0949 µM
[58] = second compound 1 µM, first compound 0.3 µM
[59] = second compound 1 µM, first compound 0.949 µM
[60] = second compound 1 µM, first compound 3 µM

C#Cc1c(F)ccc2cc(O)cc(-c3ncc4c(N5CC6CCC(C5)N6)nc(OCC56CCCN5CC(F)C6)nc4c3F)c12 (stereo not given) + CNC(C)C(=O)NC1CN(S(=O)(=O)c2cccc(S(=O)(=O)N3CCC4CCC(C(=O)NC(c5ccccc5)c5ccccc5)N4C(=O)C(NC(=O)C(C)NC)C3)c2)CCC2CCC(C(=O)NC(c3ccccc3)c3ccccc3)N2C1=O
5.08 µM: IC50 (second compound 0.1 µM)
5.11 µM: IC50 (second compound 1 µM)
6.86 µM: IC50 (second compound 0.01 µM)
inactive: viability, T/C [1] 97% | viability, T/C [2] 99.1% | viability, T/C [3] 95.8% | viability, T/C [4] 84.2% | viability, T/C [5] 70.8% | viability, T/C [6] 40.2% | viability, T/C [7] 90.2% | viability, T/C [8] 88.1% | viability, T/C [9] 91.8% | viability, T/C [10] 68.5% | viability, T/C [11] 66.5% | viability, T/C [12] 40.3% | viability, T/C [13] 84.9% | viability, T/C [14] 89.5% | viability, T/C [15] 76.2% | viability, T/C [16] 64.8% | viability, T/C [17] 63.6% | viability, T/C [18] 37% | viability, T/C [19] 84.5% | viability, T/C [20] 84.2% | viability, T/C [21] 75.3% | viability, T/C [22] 65.9% | viability, T/C [23] 61.2% | viability, T/C [24] 37.8% | viability, T/C [25] 93.3% | viability, T/C [26] 95.2% | viability, T/C [27] 76.1% | viability, T/C [28] 71% | viability, T/C [29] 65% | viability, T/C [30] 35.2%
4.98 µM: IC50 (second compound 0.316 µM)
6.23 µM: IC50 (second compound 0.0316 µM)

C=C(F)C(=O)N1CCN(c2nc(OCC3CCCN3C)nc3c2CCN(c2cccc4cccc(Cl)c24)C3)CC1CC#N (stereo not given) + CNC(C)C(=O)NC1CN(S(=O)(=O)c2cccc(S(=O)(=O)N3CCC4CCC(C(=O)NC(c5ccccc5)c5ccccc5)N4C(=O)C(NC(=O)C(C)NC)C3)c2)CCC2CCC(C(=O)NC(c3ccccc3)c3ccccc3)N2C1=O
1.15 µM: IC50 (second compound 0.0316 µM)
inactive: viability, T/C [1] 105% | viability, T/C [2] 93.5% | viability, T/C [3] 82.5% | viability, T/C [4] 66.2% | viability, T/C [5] 11.3% | viability, T/C [7] 94.4% | viability, T/C [8] 78.9% | viability, T/C [9] 79% | viability, T/C [10] 56.7% | viability, T/C [11] 11.6% | viability, T/C [13] 92% | viability, T/C [14] 84% | viability, T/C [15] 76.9% | viability, T/C [16] 51.2% | viability, T/C [17] 10.4% | viability, T/C [19] 90.5% | viability, T/C [20] 79.2% | viability, T/C [21] 70.4% | viability, T/C [22] 50.3% | viability, T/C [23] 9.19% | viability, T/C [25] 90.3% | viability, T/C [26] 89.5% | viability, T/C [27] 67% | viability, T/C [28] 46.5% | viability, T/C [29] 10.2%
1.32 µM: IC50 (second compound 0.01 µM)
0.844 µM: IC50 (second compound 0.316 µM)
0.968 µM: IC50 (second compound 0.1 µM)
0.74 µM: IC50 (second compound 1 µM)
active: viability, T/C [6] 0.22% | viability, T/C [12] 0.16% | viability, T/C [18] 0.18% | viability, T/C [24] 0.16% | viability, T/C [30] 0.23%

CCN1C(C(=O)NC23CCC(C(=O)O)(CC2)CC3)C(c2cccc(Cl)c2F)C2(C(=O)Nc3cc(Cl)ccc32)C12CCCCC2 (stereo not given) + CNC(C)C(=O)NC1CN(S(=O)(=O)c2cccc(S(=O)(=O)N3CCC4CCC(C(=O)NC(c5ccccc5)c5ccccc5)N4C(=O)C(NC(=O)C(C)NC)C3)c2)CCC2CCC(C(=O)NC(c3ccccc3)c3ccccc3)N2C1=O
> 3 µM: IC50 (second compound 0.01 µM) | IC50 (second compound 0.0316 µM) | IC50 (second compound 0.1 µM) | IC50 (second compound 0.316 µM) | IC50 (second compound 1 µM)
inactive: viability, T/C [31] 92.6% | viability, T/C [32] 96.2% | viability, T/C [33] 94.8% | viability, T/C [34] 98% | viability, T/C [35] 106% | viability, T/C [36] 101% | viability, T/C [37] 84.8% | viability, T/C [38] 89% | viability, T/C [39] 80.7% | viability, T/C [40] 84.8% | viability, T/C [41] 83.4% | viability, T/C [42] 93.8% | viability, T/C [43] 88.6% | viability, T/C [44] 87.9% | viability, T/C [45] 88.6% | viability, T/C [46] 84.8% | viability, T/C [47] 90.7% | viability, T/C [48] 86.7% | viability, T/C [49] 84.4% | viability, T/C [50] 85% | viability, T/C [51] 79% | viability, T/C [52] 84.2% | viability, T/C [53] 94.8% | viability, T/C [54] 89.6% | viability, T/C [55] 97.2% | viability, T/C [56] 100% | viability, T/C [57] 86.9% | viability, T/C [58] 86.9% | viability, T/C [59] 90.1% | viability, T/C [60] 85.2%

Cc1nc(N2CCC3(CC2)COC(C)C3N)c(CO)nc1Sc1ccnc(N)c1Cl (stereo not given) + CNC(C)C(=O)NC1CN(S(=O)(=O)c2cccc(S(=O)(=O)N3CCC4CCC(C(=O)NC(c5ccccc5)c5ccccc5)N4C(=O)C(NC(=O)C(C)NC)C3)c2)CCC2CCC(C(=O)NC(c3ccccc3)c3ccccc3)N2C1=O
> 3 µM: IC50 (second compound 0.01 µM) | IC50 (second compound 0.0316 µM) | IC50 (second compound 0.1 µM) | IC50 (second compound 0.316 µM)
inactive: viability, T/C [31] 98.5% | viability, T/C [32] 91% | viability, T/C [33] 85% | viability, T/C [34] 77.7% | viability, T/C [35] 68.3% | viability, T/C [36] 63.8% | viability, T/C [37] 84.5% | viability, T/C [38] 92.3% | viability, T/C [39] 76.1% | viability, T/C [40] 66.7% | viability, T/C [41] 63.2% | viability, T/C [42] 56.2% | viability, T/C [43] 84% | viability, T/C [44] 82.3% | viability, T/C [45] 76.7% | viability, T/C [46] 61.4% | viability, T/C [47] 58.8% | viability, T/C [48] 52.1% | viability, T/C [49] 82.7% | viability, T/C [50] 74.6% | viability, T/C [51] 64.4% | viability, T/C [52] 62.1% | viability, T/C [53] 51.9% | viability, T/C [54] 55.2% | viability, T/C [55] 82.7% | viability, T/C [56] 80.8% | viability, T/C [57] 71.7% | viability, T/C [58] 64.4% | viability, T/C [59] 60.2% | viability, T/C [60] 47.7%
2.51 µM: IC50 (second compound 1 µM)
